# Laboratory results from US7803571B2, “Method for identifying IRS inhibitors or agonists” (Sanfoi-Aventis Deutschland GmbH, priority 2003, dated 2010).
# Like-named read-outs stand apart in the source and are kept apart here. Square brackets hold non-standard residues; d marks the D form. Peptide text beside a SMILES is read from it. pY = N[C@@H](Cc1ccc(OP(=O)(O)O)cc1)C(=O)O; pS = N[C@@H](COP(=O)(O)O)C(=O)O
# What was measured:
# p85α [1] = biological target: T1, p85α (Bos taurus, UniProt P23727); assay: Surface plasmon resonance competition assay: binding of 100 nM p85α to immobilized IRS-1 peptides in the presence of competing soluble peptide; design: species or system bovine; settings: SPR response at equilibrium 440 s after injection, competitor identical to immobilized peptide
# T1 construct: GST (N, cleaved yes); made in house; host or cells: Escherichia coli BL21
# Method: The principle of operation of the BIAcore™ biosensor (Biacore, Freiburg, Germany) has been described previously (42). To avoid the interfering dimerization of the GST part of the fusion protein, it was cleaved with thrombin during the purification. Because of the known extremely fast association rates of SH2-domains to phosphopeptides the relative affinities were assessed by competition assay (43). Therefore, a constant concentration of p85α (100 nM) was incubated in running buffer (0.01 M Hepes pH 7.4, 0.15 M NaCl, 3 mM EDTA, 0.005% Surfactant P20 (HBS-EP)) with a variable concentration of the competitor peptide (50 nM-10 μM), which was identical to that bound on the CM5 sensor chip surface. After a 1 h preincubation at room temperature the various mixtures were then injected sequentially at a flow rate of 5 μl/min at 25° C. in HBS-EP buffer. The used peptides DDGYMPMSPGV (SEQ ID NO: 7), DDGpYMPMSPGV, DDGYMPMpSPGV and DDGpYMPMpSPGV, representing the amino acids 605 to 615 of rat IRS-1, were synthesized on an Applied Biosystems model 433 peptide synthesizer. All peptides were immobilized with a concentration of 5 mg/ml in 100 mM […] (NaOH pH 8.5) at 1 μl/min by standard amine coupling procedure as described by the manufacturer. Regeneration after each binding experiment was performed by injection of 6 M guanidine hydrochloride for 2 min. The kinetic analysis of the p85α with pY608 and […] interaction has been performed using the BIAevaluation 3.1 software (Biacore, Freiburg, Germany) and GraphPad Prism 3.0 (San Diego, Calif., USA).
# The inventors then determined the relative binding affinity of this reaction by monitoring the binding of 100 nM p85α to the peptides pY608 (DDGpYMPMSPGV) and pY608-pS612 (DDGpYMPMpSPGV) in the presence of competing soluble peptides (FIGS. 6D, E, F). Half-maximum inhibitory concentrations (IC50) were obtained by plotting the SPR response 440 s after injection at equilibrium versus the log peptide concentration. […] Solubilized peptides inhibited binding of p85α to the immobilized peptides at micromolar concentrations. […] In order to identify additional PKC-ζ phosphorylation sites on rIRS-1^449-664 that might promote the inhibition of insulin-stimulated tyrosine phosphorylation in the in vitro system, rIRS-1^449-664 was incubated with PKC-ζ and separated by SDS-PAGE. Phosphorylated rIRS-1^449-664 was digested with trypsin and extracted from the gel. The peptides generated by digestion were resolved by two dimensional HPLC and the content of radioactivity in the fractions was monitored by Cerenkov counting. […] To separate comigrating peptides, radioactive fractions of each peak were pooled according to the elution profile and subjected to reversed phase (RP)-HPLC (FIG. 7B). […]
# insulin receptor = biological target: T2, insulin receptor (Rattus norvegicus, UniProt P15127); assay: In vitro phosphorylation assay: tyrosine phosphorylation of rIRS-1^449-664 by insulin receptor; format: biochemical; settings: rIRS-1^449-664 preincubated with 0.5 μg PKC for 30 min; insulin-stimulated value set as 100%
# T2 construct: from tissue; host or cells: rat liver
# Method: Rat liver was rapidly removed, immediately frozen in liquid nitrogen and processed as described (41). Briefly, 3.5 vol/wt of an ice-cold buffer consisting of 50 mM Hepes (pH 7.4), 1% Triton X-100 and 2× Complete Protease Inhibitors was added and the liver was homogenized using an Ultraturrax and a Potter-Elvehjem homogenizer, followed by centrifugation at 10,000×g for 10 min at 4° C. The resultant supernatant was slowly stirred at room temperature for 60 min, then again centrifuged at 100,000×g for 90 min at 4° C. The supernatant was then applied to an agarose-bound wheat germ agglutinin (WGA) column. The column was washed with 50 mM Hepes (pH 7.4), 0.1% Triton X-100, and bound glycoproteins were eluted from the WGA column with this buffer containing 0.3 M N-acetylglucoseamine.
# For rIRS-1^449-664 phosphorylation by insulin receptor, […] of the WGA-purified glycoprotein fraction was preincubated for 30 min at 30° C. with 100 nM of insulin in a phosphorylation buffer containing 20 mM Hepes (pH 7.4), 1 mM DTT, 10 mM MgCl2, 100 μg/ml bovine serum albumin, 0.2 mM Na3VO4, 1.7 mM CaCl2, 0.6 mg/ml phosphatidylserine, and 0.5 μg/ml okadaic acid. Autophosphorylation was initiated by the addition of ATP at a concentration of 50 μM and continued for 10 min at 30° C. Substrate phosphorylations were initiated by addition of equal volumes of […] (1 μg) with or without pre-treatment (30 min) by the PKC isoforms in the same buffer in the presence of 50 μM ATP and was allowed to proceed for 10 min at 30° C. in a final volume of 50 μl. The reaction was terminated by the addition of 6× sample buffer (0.35 M Tris-HCl (pH 6.8), 10.28% (w/v) SDS, 36% (v/v) glycerol; 0.6 M DTT, 0.012% (w/v) bromphenol blue) and boiling for 5 min. Proteins were separated by SDS-PAGE and analyzed by immunodetection with an anti-phosphotyrosine antibody after transfer to nitrocellulose. Serine/threonine phosphorylation of rIRS-1^449-664 by different PKC isoforms was assessed by incubating 1 μg rIRS-1^449-664 with 0.5 μg PKC-rb or PKC-ζ in phosphorylation buffer for 30 min at 30° C. in the presence of 50 μM ATP plus 2 μCi [γ-^32P]ATP in a volume of 20 μl. Proteins were resolved by SDS-PAGE and the stained and dried gels were subjected to autoradiography. The extent of phosphate incorporation was determined by Cerenkov counting of excised fragments.
# Proteins were separated by SDS-PAGE using 8-18% gradient gels followed by transfer to nitrocellulose in a semi-dry blotting apparatus. […] All blots were quantified using the Lumilmager software. Significance of reported differences was evaluated by using the null hypothesis and t statistics for unpaired data. […]
# IR β-subunit = biological target: T3, IR β-subunit (Rattus norvegicus, UniProt P15127); assay: Autophosphorylation of IR β-subunit in the presence of PKC isoforms; format: biochemical; settings: autoactivated receptor incubated 10 min at 30° C. with PKC
# T3 construct: from tissue; host or cells: rat liver
# Method: (A) Autophosphorylation of IR was conducted as outlined in FIG. 2. Either PKC-rb or PKC-ζ was added after 10 min of autophosphorylation and incubation was continued for another 10 min. Tyrosine phosphorylation of IR β-subunit was then analyzed by immunoblotting. (B) Quantification of blots was obtained using Lumi Imager software. Data are mean values±SEM (n=4-6).
# For rIRS-1^449-664 phosphorylation by insulin receptor, […] of the WGA-purified glycoprotein fraction was preincubated for 30 min at 30° C. with 100 nM of insulin in a phosphorylation buffer containing 20 mM Hepes (pH 7.4), 1 mM DTT, 10 mM MgCl2, 100 μg/ml bovine serum albumin, 0.2 mM Na3VO4, 1.7 mM CaCl2, 0.6 mg/ml phosphatidylserine, and 0.5 μg/ml okadaic acid. Autophosphorylation was initiated by the addition of ATP at a concentration of 50 μM and continued for 10 min at 30° C. […] Proteins were separated by SDS-PAGE and analyzed by immunodetection with an anti-phosphotyrosine antibody after transfer to nitrocellulose. Serine/threonine phosphorylation of rIRS-1^449-664 by different PKC isoforms was assessed by incubating 1 μg rIRS-1^449-664 with 0.5 μg PKC-rb or PKC-ζ in phosphorylation buffer for 30 min at 30° C. in the presence of 50 μM ATP plus 2 μCi [γ-^32P]ATP in a volume of 20 μl. […] The extent of phosphate incorporation was determined by Cerenkov counting of excised fragments.
# p85α [2] = biological target: T1, p85α; assay: GST pull down assay: interaction of rIRS-1^449-664 with p85α; format: binding, bovine; settings: rIRS-1^449-664 preincubated with 0.5 μg PKC for 30 min; insulin-stimulated value set as 100%
# Method: In vitro phosphorylated rIRS-1^449-664 was incubated with glutathione sepharose beads on a rotator for 1 h at 4° C. Pellets were washed three times with binding buffer (50 mM Tris (pH 7.4), 150 mM NaCl, 1% (v/v) Nonidet P-40, 1 mM EDTA, 1 mM NaF, 1 mM Na3VO4). Then 0.5 μg recombinant p85α was added and incubation was continued for 2 h at 4° C. After three times washing, the bound proteins were eluted with 20 μl of 2× sample buffer and separated by SDS-PAGE.
# Proteins were separated by SDS-PAGE using 8-18% gradient gels followed by transfer to nitrocellulose in a semi-dry blotting apparatus. The membrane was then blocked 60 min in Tris-buffered saline containing 0.05% Tween 20 and 1% BSA or 5% non fat dry milk and probed with appropriate antibodies (anti-IRS-1, anti-pTyr, anti-p85α). After extensive washing, the membranes were incubated with horseradish peroxidase-conjugated secondary antibodies, again washed and then the protein bands were visualized by the enhanced chemiluminescence (ECL) method on a Lumilmager workstation (Boehringer, Mannheim, Germany). All blots were quantified using the Lumilmager software. Significance of reported differences was evaluated by using the null hypothesis and t statistics for unpaired data. A p value less than 0.05 was considered to be statistically significant.
# [3] = read-out: IC50, inhibition of p85α binding by soluble peptide, two site competition fit, first value
# [4] = read-out: IC50, inhibition of p85α binding by soluble peptide, two site competition fit, second value
# T1 sequence (P23727 whole entry): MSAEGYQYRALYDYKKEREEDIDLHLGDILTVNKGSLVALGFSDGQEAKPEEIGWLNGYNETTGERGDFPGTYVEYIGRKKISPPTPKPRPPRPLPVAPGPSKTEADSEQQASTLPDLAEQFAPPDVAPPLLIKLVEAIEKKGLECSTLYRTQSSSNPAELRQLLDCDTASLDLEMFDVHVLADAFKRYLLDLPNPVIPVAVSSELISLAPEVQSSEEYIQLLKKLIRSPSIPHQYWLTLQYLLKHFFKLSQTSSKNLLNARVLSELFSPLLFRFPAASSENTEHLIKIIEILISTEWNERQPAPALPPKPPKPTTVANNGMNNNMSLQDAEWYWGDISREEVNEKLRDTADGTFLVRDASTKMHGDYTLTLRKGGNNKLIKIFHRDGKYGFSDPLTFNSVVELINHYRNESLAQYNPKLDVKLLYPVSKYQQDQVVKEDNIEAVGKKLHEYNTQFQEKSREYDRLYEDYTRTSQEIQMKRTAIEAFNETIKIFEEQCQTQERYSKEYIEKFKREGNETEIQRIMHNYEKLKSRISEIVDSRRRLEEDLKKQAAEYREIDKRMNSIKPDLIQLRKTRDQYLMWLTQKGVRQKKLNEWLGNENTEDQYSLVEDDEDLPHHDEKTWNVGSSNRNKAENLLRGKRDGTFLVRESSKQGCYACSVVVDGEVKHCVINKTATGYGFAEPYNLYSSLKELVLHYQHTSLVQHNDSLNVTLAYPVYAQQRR
# T3 sequence (P15127 27-759 limits assumed): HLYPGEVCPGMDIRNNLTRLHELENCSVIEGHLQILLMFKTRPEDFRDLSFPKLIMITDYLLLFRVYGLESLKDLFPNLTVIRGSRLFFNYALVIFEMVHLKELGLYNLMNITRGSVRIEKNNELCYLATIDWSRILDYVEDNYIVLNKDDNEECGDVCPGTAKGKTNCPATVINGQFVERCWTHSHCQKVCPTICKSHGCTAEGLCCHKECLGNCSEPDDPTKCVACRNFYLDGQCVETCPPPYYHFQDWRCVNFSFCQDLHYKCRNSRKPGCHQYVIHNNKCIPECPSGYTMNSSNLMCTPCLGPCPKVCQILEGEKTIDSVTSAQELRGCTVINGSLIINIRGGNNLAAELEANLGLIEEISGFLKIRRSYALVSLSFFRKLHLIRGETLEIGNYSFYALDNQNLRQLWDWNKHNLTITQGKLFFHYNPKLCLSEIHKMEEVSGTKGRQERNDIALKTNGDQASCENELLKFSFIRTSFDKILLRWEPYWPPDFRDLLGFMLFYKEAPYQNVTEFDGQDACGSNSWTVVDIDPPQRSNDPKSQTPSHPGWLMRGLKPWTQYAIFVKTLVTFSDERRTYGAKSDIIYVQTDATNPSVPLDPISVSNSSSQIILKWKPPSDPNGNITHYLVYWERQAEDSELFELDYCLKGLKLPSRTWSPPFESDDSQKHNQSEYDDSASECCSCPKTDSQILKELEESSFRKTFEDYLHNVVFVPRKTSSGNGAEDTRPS
# T2 sequence (P15127 27-759 limits assumed): as above
IC50 (p85α [1]; [3]) [µM],IC50 (p85α [1]; [4]) [µM],Reduction of insulin-stimulated tyrosine phosphorylation of rIRS-1^449-664 by PKC pretreatment (insulin receptor) [%],Alteration of IR autophosphorylation compared to controls (IR β-subunit),Inhibition of p85α association with rIRS-1^449-664 by PKC pretreatment (p85α [2]) [%],Molecule
0.15,2.88,–,–,–,"CSCC[C@H](NC(=O)[C@@H]1CCCN1C(=O)[C@H](CCSC)NC(=O)[C@H](Cc1ccc(OP(=O)(O)O)cc1)NC(=O)CNC(=O)[C@H](CC(=O)O)NC(=O)[C@@H](N)CC(=O)O)C(=O)N[C@@H](COP(=O)(O)O)C(=O)N1CCC[C@H]1C(=O)NCC(=O)N[C@H](C(=O)O)C(C)C [pY608-pS612, DDGpYMPMpSPGV] (H-DDG[pY]MPM[pS]PGV-OH)"
0.26,16.6,–,–,–,"CSCC[C@H](NC(=O)[C@@H]1CCCN1C(=O)[C@H](CCSC)NC(=O)[C@H](Cc1ccc(OP(=O)(O)O)cc1)NC(=O)CNC(=O)[C@H](CC(=O)O)NC(=O)[C@@H](N)CC(=O)O)C(=O)N[C@@H](CO)C(=O)N1CCC[C@H]1C(=O)NCC(=O)N[C@H](C(=O)O)C(C)C [pY608, DDGpYMPMSPGV] (H-DDG[pY]MPMSPGV-OH; N-terminus and C-terminus assumed)"
–,–,46±5,No significant alteration,81±1,"PKC-ζ: recombinant human protein kinase C-ζ, obtained from Calbiochem (protein) MPSRTGPKMEGSGGRVRLKAHYGGDIFITSVDAATTFEELCEEVRDMCRLHQQHPLTLKWVDSEGDPCTVSSQMELEEAFRLARQCRDEGLIIHVFPSTPEQPGLPCPGEDKSIYRRGARRWRKLYRANGHLFQAKRFNRRAYCGQCSERIWGLARQGYRCINCKLLVHKRCHGLVPLTCRKHMDSVMPSQEPPVDDKNEDADLPSEETDGIAYISSSRKHDSIKDDSEDLKPVIDGMDGIKISQGLGLQDFDLIRVIGRGSYAKVLLVRLKKNDQIYAMKVVKKELVHDDEDIDWVQTEKHVFEQASSNPFLVGLHSCFQTTSRLFLVIEYVNGGDLMFHMQRQRKLPEEHARFYAAEICIALNFLHERGIIYRDLKLDNVLLDADGHIKLTDYGMCKEGLGPGDTTSTFCGTPNYIAPEILRGEEYGFSVDWWALGVLMFEMMAGRSPFDIITDNPDMNTEDYLFQVILEKPIRIPRFLSVKASHVLKGFLNKDPKERLGCRPQTGFSDIKSHAFFRSIDWDLLEKKQALPPFQPQITDDYGLDNFDTQFTSEPVQLTPDDEDAIKRIDQSEFEGFEYINPLLLSTEESV"
